Results reported in US6737383B1, “Herbicidal oxadiazolidines” (priority 1999, dated 2004).

Experiments:
bedstraw = test: Test B pre/postemergence bedstraw; type: in vivo, Galium aparine
Outline: (§1)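 Test chemicals in a non-phytotoxic solvent mixture with surfactant were sprayed preemergence onto planted seeds and postemergence onto plants 2 to 18 cm tall (1- to 4-leaf stage). After twelve to sixteen days in a greenhouse, injury was visually rated against untreated controls from 0 (no effect) to 10 (complete control).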

blackgrass = test: Test B pre/postemergence blackgrass; type: in vivo, Alopecurus myosuroides
Outline: as §1

surinam grass = test: Test B pre/postemergence surinam grass; type: in vivo, Brachiaria decumbens
Outline: as §1

cocklebur = test: Test B pre/postemergence cocklebur; type: in vivo, Xanthium strumarium
Outline: as §1

corn = test: Test B pre/postemergence corn; type: in vivo, Zea mays
Outline: as §1

crabgrass = test: Test B pre/postemergence crabgrass; type: in vivo, Digitaria sanguinalis
Outline: as §1

giant foxtail = test: Test B pre/postemergence giant foxtail; type: in vivo, Setaria faberii
Outline: as §1

morningglory = test: Test B pre/postemergence morningglory; type: in vivo, Ipomoea hederacea
Outline: as §1

pigweed = test: Test B pre/postemergence pigweed; type: in vivo, Amaranthus retroflexus
Outline: as §1

rape = test: Test B pre/postemergence rape; type: in vivo, Brassica napus
Outline: as §1

soybean = test: Test B pre/postemergence soybean; type: in vivo, Glycine max
Outline: as §1

sugar beet = test: Test B pre/postemergence sugar beet; type: in vivo, Beta vulgaris
Outline: as §1

velvetleaf = test: Test B pre/postemergence velvetleaf; type: in vivo, Abutilon theophrasti
Outline: as §1

wheat = test: Test B pre/postemergence wheat; type: in vivo, Triticum aestivum
Outline: as §1

wild oat = test: Test B pre/postemergence wild oat; type: in vivo, Avena fatua
Outline: as §1

purple nutsedge = test: Test B pre/postemergence purple nutsedge; type: in vivo, Cyperus rotundus
Outline: as §1

[1] = Preemergence, Rate 62 g/ha, scale of 0 to 10 where 0 is no effect and 10 is complete control
[2] = Preemergence, Rate 125 g/ha, scale of 0 to 10 where 0 is no effect and 10 is complete control
[3] = Preemergence, Rate 250 g/ha, scale 0 to 10 (0 no effect, 10 complete control)
[4] = Preemergence, Rate 500 g/ha, scale of 0 to 10 where 0 is no effect and 10 is complete control
[5] = Preemergence, Rate 250 g/ha, scale 0 (no effect) to 10 (complete control)
[6] = Rate 250 g/ha, Postemergence, scale 0 to 10, 0 is no effect, 10 is complete control
[7] = Postemergence, Rate 62 g/ha, scale 0 to 10, 0 is no effect, 10 is complete control
[8] = Postemergence, Rate 125 g/ha, scale of 0 to 10 where 0 is no effect and 10 is complete control
[9] = Rate 500 g/ha, Postemergence, scale 0 to 10, 0 is no effect, 10 is complete control

**Q.** `CC(C)N(C(=O)n1oc(=O)n(C(C)C(=O)N2CCOCC2)c1=O)c1ccc(Cl)cc1` (stereo not shown) [Compound 703] was tested. Which “Bedstraw plant response rating” value (bedstraw; [1]) did it give?
**A.** 0

**Q.** And the “Plant response rating, Bedstraw” value (bedstraw; [2])?
**A.** 0

**Q.** And the “Plant response rating, Bedstraw” value (bedstraw; [3])?
**A.** 0

**Q.** What about the “Plant response rating, Bedstraw” value (bedstraw; [4]) of the same compound?
**A.** 0

**Q.** And the “Blackgrass plant response rating” value (blackgrass; [1])?
**A.** 0

**Q.** What about the “Plant response rating, Blackgrass” value (blackgrass; [2]) of the same compound?
**A.** 3

**Q.** What about the “Plant response rating, Blackgrass” value (blackgrass; [3]) of the same compound?
**A.** 6

**Q.** What about the “Plant response rating, Blackgrass” value (blackgrass; [4]) of the same compound?
**A.** 8

**Q.** What about the “B. signalgrass plant response rating” value (surinam grass; [1]) of the same compound?
**A.** 2

**Q.** What about the “Plant response rating, B. signalgrass” value (surinam grass; [2]) of the same compound?
**A.** 3

**Q.** What about the “Plant response rating, B. signalgrass” value (surinam grass; [3]) of the same compound?
**A.** 3

**Q.** What about the “Plant response rating, B. signalgrass” value (surinam grass; [4]) of the same compound?
**A.** 8

**Q.** And the “Cocklebur plant response rating” value (cocklebur; [1])?
**A.** 0

**Q.** And the “Plant response rating, Cocklebur” value (cocklebur; [2])?
**A.** 0

**Q.** What about the “Plant response rating, Cocklebur” value (cocklebur; [3]) of the same compound?
**A.** 0

**Q.** What about the “Plant response rating, Cocklebur” value (cocklebur; [4]) of the same compound?
**A.** 0

**Q.** And the “Corn plant response rating” value (corn; [1])?
**A.** 0

**Q.** And the “Plant response rating, Corn” value (corn; [2])?
**A.** 0

**Q.** What about the “Plant response rating, Corn” value (corn; [3]) of the same compound?
**A.** 0

**Q.** And the “Crabgrass plant response rating” value (crabgrass; [1])?
**A.** 5

**Q.** What about the “Plant response rating, Crabgrass” value (crabgrass; [2]) of the same compound?
**A.** 8

**Q.** And the “Plant response rating, Crabgrass” value (crabgrass; [3])?
**A.** 9

**Q.** What about the “Giant foxtail plant response rating” value (giant foxtail; [1]) of the same compound?
**A.** 5

**Q.** And the “Plant response rating, Giant foxtail” value (giant foxtail; [2])?
**A.** 7

**Q.** What about the “Morningglory plant response rating” value (morningglory; [1]) of the same compound?
**A.** 0

**Q.** What about the “Plant response rating, Morningglory” value (morningglory; [2]) of the same compound?
**A.** 0

**Q.** And the “Redroot pigweed plant response rating” value (pigweed; [1])?
**A.** 0

**Q.** And the “Plant response rating, Redroot pigweed” value (pigweed; [2])?
**A.** 4

**Q.** And the “Rape plant response rating” value (rape; [1])?
**A.** 0

**Q.** What about the “Plant response rating, Rape” value (rape; [2]) of the same compound?
**A.** 0

**Q.** What about the “Soybean plant response rating” value (soybean; [1]) of the same compound?
**A.** 0

**Q.** And the “Plant response rating, Soybean” value (soybean; [2])?
**A.** 0

**Q.** And the “Sugarbeets plant response rating” value (sugar beet; [1])?
**A.** 0

**Q.** What about the “Plant response rating, Sugarbeets” value (sugar beet; [2]) of the same compound?
**A.** 0

**Q.** What about the “Velvetleaf plant response rating” value (velvetleaf; [1]) of the same compound?
**A.** 0

**Q.** And the “Plant response rating, Velvetleaf” value (velvetleaf; [2])?
**A.** 0

**Q.** And the “Wheat plant response rating” value (wheat; [1])?
**A.** 0

**Q.** What about the “Plant response rating, Wheat” value (wheat; [2]) of the same compound?
**A.** 0

**Q.** And the “Wild oats plant response rating” value (wild oat; [1])?
**A.** 0

**Q.** And the “Plant response rating, Wild oats” value (wild oat; [2])?
**A.** 0

**Q.** What about the “Nutsedge plant response rating” value (purple nutsedge; [1]) of the same compound?
**A.** 0

**Q.** And the “Plant response rating, Nutsedge” value (purple nutsedge; [2])?
**A.** 0

**Q.** Which results are given for `CC(C)N(C(=O)n1oc(=O)n(CC(F)F)c1=O)c1ccc(F)cc1F` [Compound 711]?
**A.** Bedstraw plant response rating (bedstraw; [1]): 2; Plant response rating, Bedstraw (bedstraw; [2]): 3; Bedstraw plant response rating (bedstraw; [5]): 6; Plant response rating, Bedstraw (bedstraw; [4]): 7; Bedstraw plant response rating (bedstraw; [6]): 8; Plant response rating, Blackgrass (blackgrass; [7]): 3; Blackgrass plant response rating (blackgrass; [8]): 7; Blackgrass plant response rating (blackgrass; [1]): 6; Plant response rating, Blackgrass (blackgrass; [2]): 6; Blackgrass plant response rating (blackgrass; [5]): 8; Plant response rating, Blackgrass (blackgrass; [4]): 9; Blackgrass plant response rating (blackgrass; [6]): 7; Blackgrass plant response rating (blackgrass; [9]): 7; Plant response rating, B. signalgrass (surinam grass; [7]): 4; B. signalgrass plant response rating (surinam grass; [8]): 6; B. signalgrass plant response rating (surinam grass; [1]): 2; Plant response rating, B. signalgrass (surinam grass; [2]): 2; B. signalgrass plant response rating (surinam grass; [5]): 7; Plant response rating, B. signalgrass (surinam grass; [4]): 8; B. signalgrass plant response rating (surinam grass; [6]): 6; B. signalgrass plant response rating (surinam grass; [9]): 8; Plant response rating, Cocklebur (cocklebur; [7]): 1; Cocklebur plant response rating (cocklebur; [8]): 1; Cocklebur plant response rating (cocklebur; [1]): 0; Plant response rating, Cocklebur (cocklebur; [2]): 0; Cocklebur plant response rating (cocklebur; [5]): 0; Plant response rating, Cocklebur (cocklebur; [4]): 0; Cocklebur plant response rating (cocklebur; [6]): 2; Cocklebur plant response rating (cocklebur; [9]): 7; Plant response rating, Corn (corn; [7]): 0; Corn plant response rating (corn; [8]): 0; Corn plant response rating (corn; [1]): 0; Plant response rating, Corn (corn; [2]): 0; Corn plant response rating (corn; [5]): 0; Corn plant response rating (corn; [6]): 0; Corn plant response rating (corn; [9]): 4; Plant response rating, Crabgrass (crabgrass; [7]): 4; Crabgrass plant response rating (crabgrass; [8]): 8; Crabgrass plant response rating (crabgrass; [1]): 8; Plant response rating, Crabgrass (crabgrass; [2]): 9; Crabgrass plant response rating (crabgrass; [5]): 10; Crabgrass plant response rating (crabgrass; [6]): 9; Crabgrass plant response rating (crabgrass; [9]): 10; Plant response rating, Giant foxtail (giant foxtail; [7]): 6; Giant foxtail plant response rating (giant foxtail; [8]): 8; Giant foxtail plant response rating (giant foxtail; [1]): 10; Plant response rating, Giant foxtail (giant foxtail; [2]): 10; Giant foxtail plant response rating (giant foxtail; [5]): 10; Giant foxtail plant response rating (giant foxtail; [6]): 9; Giant foxtail plant response rating (giant foxtail; [9]): 9; Plant response rating, Morningglory (morningglory; [7]): 2; Morningglory plant response rating (morningglory; [8]): 2; Morningglory plant response rating (morningglory; [1]): 0; Plant response rating, Morningglory (morningglory; [2]): 1; Morningglory plant response rating (morningglory; [5]): 3; Morningglory plant response rating (morningglory; [6]): 4; Morningglory plant response rating (morningglory; [9]): 4; Plant response rating, Redroot pigweed (pigweed; [7]): 3; Redroot pigweed plant response rating (pigweed; [8]): 7; Redroot pigweed plant response rating (pigweed; [1]): 7; Plant response rating, Redroot pigweed (pigweed; [2]): 7; Redroot pigweed plant response rating (pigweed; [5]): 9; Redroot pigweed plant response rating (pigweed; [6]): 9; Redroot pigweed plant response rating (pigweed; [9]): 10; Plant response rating, Rape (rape; [7]): 0; Rape plant response rating (rape; [8]): 0; Rape plant response rating (rape; [1]): 1; Plant response rating, Rape (rape; [2]): 6; Rape plant response rating (rape; [5]): 7; Rape plant response rating (rape; [6]): 2; Rape plant response rating (rape; [9]): 4; Plant response rating, Soybean (soybean; [7]): 1; Soybean plant response rating (soybean; [8]): 4; Soybean plant response rating (soybean; [1]): 0; Plant response rating, Soybean (soybean; [2]): 0; Soybean plant response rating (soybean; [5]): 0; Soybean plant response rating (soybean; [6]): 5; Soybean plant response rating (soybean; [9]): 6; Plant response rating, Sugarbeets (sugar beet; [7]): 1; Sugarbeets plant response rating (sugar beet; [8]): 2; Sugarbeets plant response rating (sugar beet; [1]): 5; Plant response rating, Sugarbeets (sugar beet; [2]): 6; Sugarbeets plant response rating (sugar beet; [5]): 8; Sugarbeets plant response rating (sugar beet; [6]): 2; Sugarbeets plant response rating (sugar beet; [9]): 3; Plant response rating, Velvetleaf (velvetleaf; [7]): 3; Velvetleaf plant response rating (velvetleaf; [8]): 5; Velvetleaf plant response rating (velvetleaf; [1]): 4; Plant response rating, Velvetleaf (velvetleaf; [2]): 6; Velvetleaf plant response rating (velvetleaf; [5]): 6; Velvetleaf plant response rating (velvetleaf; [6]): 6; Velvetleaf plant response rating (velvetleaf; [9]): 6; Plant response rating, Wheat (wheat; [7]): 0; Wheat plant response rating (wheat; [8]): 0; Wheat plant response rating (wheat; [1]): 2; Plant response rating, Wheat (wheat; [2]): 6; Wheat plant response rating (wheat; [5]): 8; Wheat plant response rating (wheat; [6]): 3; Wheat plant response rating (wheat; [9]): 5; Plant response rating, Wild oats (wild oat; [7]): 0; Wild oats plant response rating (wild oat; [8]): 0; Wild oats plant response rating (wild oat; [1]): 7; Plant response rating, Wild oats (wild oat; [2]): 7; Wild oats plant response rating (wild oat; [5]): 9; Wild oats plant response rating (wild oat; [6]): 2; Wild oats plant response rating (wild oat; [9]): 4; Plant response rating, Nutsedge (purple nutsedge; [7]): 0; Nutsedge plant response rating (purple nutsedge; [8]): 0; Nutsedge plant response rating (purple nutsedge; [1]): 0; Nutsedge plant response rating (purple nutsedge; [5]): 0; Nutsedge plant response rating (purple nutsedge; [6]): 3; Nutsedge plant response rating (purple nutsedge; [9]): 5
